{
  "source": "paper PMC8225008",
  "about": "“Development of Non-Ethoxypropanoic Acid Type Cryptochrome Inhibitors with Circadian Molecular Clock-Enhancing Activity by Bioisosteric Replacement” (Pharmaceuticals, 2021)",
  "target": "T1, CYP1A2 (Homo sapiens, UniProt P05177)",
  "T1 construct": "pooled human liver microsomes (HLMs, XTreme 200, XenoTech, Lenexa, KS, USA); tissue XenoTech XTreme 200; host or cells: pooled human liver microsomes",
  "T1 sequence (P05177 1-516)": "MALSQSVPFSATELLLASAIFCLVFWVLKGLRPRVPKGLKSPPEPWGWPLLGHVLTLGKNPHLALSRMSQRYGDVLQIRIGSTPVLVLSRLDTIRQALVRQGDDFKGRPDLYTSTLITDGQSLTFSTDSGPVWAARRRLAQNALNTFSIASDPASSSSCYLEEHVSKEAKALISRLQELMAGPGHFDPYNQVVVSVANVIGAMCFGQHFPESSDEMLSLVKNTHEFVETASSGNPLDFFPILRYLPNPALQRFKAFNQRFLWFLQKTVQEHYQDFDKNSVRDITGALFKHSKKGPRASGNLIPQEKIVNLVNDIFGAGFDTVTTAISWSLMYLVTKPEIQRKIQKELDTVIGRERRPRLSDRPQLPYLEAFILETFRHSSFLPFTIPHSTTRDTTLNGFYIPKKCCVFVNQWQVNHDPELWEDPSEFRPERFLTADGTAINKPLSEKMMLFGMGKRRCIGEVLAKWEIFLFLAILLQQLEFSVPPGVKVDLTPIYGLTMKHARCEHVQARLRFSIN",
  "test": "Cytochrome P450 inhibition assay (cocktail method, human liver microsomes), phenacetin O-deethylation",
  "type": "in vitro ADME",
  "description": "The inhibitory effects of KS15 and compound 5d on the metabolism of five cytochrome P450 (P450) probe substrates were evaluated using previous methods with slight modifications. The following P450 probe substrates were used: phenacetin (100 μM) for CYP1A2, tolbutamide (100 μM) for CYP2C9, omeprazole (20 μM) for CYP2C19, dextromethorphan (5 μM) for CYP2D6, and midazolam (5 μM) for CYP3A. Incubation mixtures containing pooled human liver microsomes (HLMs, XTreme 200, XenoTech, Lenexa, KS, USA), P450 probe substrates, and KS15 or compound 5d (final concentrations: 0, 0.5, 2, 5, 20, and 50 μM) were preincubated for 5 min at 37 °C. […] After centrifugation at 18,000× g (5 min, 4 °C), supernatant aliquots were analyzed by liquid chromatography-tandem mass spectrometry (LC-MS/MS). […]\nAll metabolites and IS were separated on a Kinetex C18 column (100 mm × 2.1 mm, 2.6 μm ID., Phenomenex, Torrance, CA, USA) and analyzed using an LC-MS/MS system (LCMS 8060, Shimadzu, Tokyo, Japan) equipped with an electrospray ionization (ESI) interface. […]\nThe EC50 values for luciferase reporter assay were calculated based on a logistic four-parametric equation using the mean values of intrinsic activation (SigmaPlot 10.0; Systat Software Inc., San Jose, CA, USA). […] Pharmacokinetic parameters were calculated using non-compartmental analysis (WinNonlin v.8.3; Pharsight, Mountain View, CA, USA). […]",
  "data": [
    {"compound": "COC(=O)COc1cccc(C(C)=NOCc2ccc([N+](=O)[O-])cc2)c1", "note": "[Compound 5d, Methyl 2-(3-(1-(((4-nitrobenzyl)oxy)imino)ethyl)phenoxy)acetate]", "values": [
      {"measurement": "IC50", "value": "> 50", "unit": "µM"}
    ]}
  ]
}
